EP0739343B1, “WATER SOLUBLE ONIUM SALT OF TAXO-DITERPENOID” (THE SCRIPPS RESEARCH INSTITUTE, priority 1994, dated 1995)

What was measured:
tubulin = experiment: Tubulin (microtubule) polymerization-depolymerization measurement, turbidity at 340 nm; type: biochemical; settings: for calcium chloride promoted depolymerization is suppressed: tubulin 1.0 mg/mL, 1.0 mM GTP, compound 10^-6 M, CaCl2 0.25 mM added after 20 minutes, 37°C
Description: Tubulin polymerization-depolymerization measurements are illustrate in Figure 3. Negative controls are shown with triangles; positive taxol controls are shown with diamonds; and taxol-2'-MPT, i.e., compound 2 is shown with dots.
More particularly, measurement were performed in 96 well plates at 37°C following the protocol of R. Merlock and W. Wrasidlo (Analytical Biochemistry 1993, in press). Calcium chloride addition is indicated by the arrow. In each case, 1.0 mM GTP was used to promote the initial polymerization of tubulin. Negative control employed tubulin (1.0 mg/mL) alone, CaCl2 (0,25 mM) added after 20 minutes. Positive taxol control employed tubulin (1.0 mg/mL) with taxol (10^-6M) and CaCl2 (0.25mM) added after 20 minutes. The experimental taxol-2'-MPT employed tubulin (1.0 mg/mL) with taxol-2'-MPT (10^-6) and CaCl2 (0.25 mM) added after 20 minutes. Turbidity was measured as optical density at 340 nm using a microplate reader (Molecular Devices Thermomax).

physchem = settings: water
albumin = albumin (Homo sapiens, UniProt P02768); settings: serum; cited from earlier work
[1] = Metabolic study using the tritiated compound; type: in vivo; settings: tritiated 2
[2] = Stability and taxol release in the solid state and aqueous media, assayed by HPLC; type: physicochemical
Description: (§1) Due to a difference in retention time using our standard HPLC conditions (see Fig. 1) and differing ultraviolet absorption maxima (1280/1254 = 1.6 for 2 and 0.3 for 1), the stability of 2 was easily assayed by HPLC (Fig. 1). […] In phosphate buffered saline (PBS) or ammonium acetate - phosphate buffer systems of pH 6.0 to 7.3, 2 is stable at 25 °C for over 21 days. Taxol-2'-MPT (2) is, however, unstable in 5% HCl (pH 1.1) and brine.
(§2) Under these conditions 20% of total is recovered. More particularly, Taxol-2'-MPT (2) was dissolved in the aqueous system with the aid of sonication for five minutes. Aliquots were then removed at the times shown and partitioned into methylene chloride to quench the reaction. Samples were then analyzed using a Waters Maxima HPLC instrument equipped with an autoinjector (3.9x300 mm C18 column equipped with a precolumn. The flow rate was 1.5 mL/minute. The eluent gradient A-B extended over 30 minutes. "A" was 80% 80mM ammonium acetate, pH 6.0. "B" was 100% methanol. An ultraviolet diode array detector was employed. The ratio of compound 2 (Rf 16.2 min.) to taxol (compound 1, Rf 16.8 min.) remaining was determined from the relative areas of the peaks after normalization with previously determined calibration curves.

[3] = Critical aggregation concentration by UV absorption (optical density) at 340 nm; type: physicochemical; settings: buffered solutions, absorption at 340 nm
[4] = Taxol release from the prodrug in plasma, methylene chloride extraction and HPLC; type: in vitro ADME, human
Description: as §1, §2

[5] = in water, 5% dextrose, and 1.5% saline

Sequence of albumin (P02768 25-609): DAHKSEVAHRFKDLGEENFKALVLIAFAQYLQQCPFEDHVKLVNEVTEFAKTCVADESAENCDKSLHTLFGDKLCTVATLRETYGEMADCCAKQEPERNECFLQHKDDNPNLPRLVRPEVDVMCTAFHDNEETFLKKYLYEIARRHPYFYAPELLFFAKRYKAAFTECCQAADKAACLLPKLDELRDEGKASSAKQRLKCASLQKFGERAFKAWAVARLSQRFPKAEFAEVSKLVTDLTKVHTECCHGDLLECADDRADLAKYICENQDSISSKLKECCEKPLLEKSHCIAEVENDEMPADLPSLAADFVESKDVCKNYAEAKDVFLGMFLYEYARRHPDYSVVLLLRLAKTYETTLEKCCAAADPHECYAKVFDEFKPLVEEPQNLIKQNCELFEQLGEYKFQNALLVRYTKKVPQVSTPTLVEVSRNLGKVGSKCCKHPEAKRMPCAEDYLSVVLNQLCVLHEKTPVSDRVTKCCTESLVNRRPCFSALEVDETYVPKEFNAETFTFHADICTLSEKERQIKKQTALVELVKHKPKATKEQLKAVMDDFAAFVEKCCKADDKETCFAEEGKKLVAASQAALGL

excreted through the kidneys [1] [%] | stability ([2]; 5% HCl (pH 1.1) and brine) | stability in the solid state ([2]; -80 °C to 25 °C, regardless of inert atmosphere) | stable for ([2]; PBS or ammonium acetate - phosphate buffer systems of pH 6.0 to 7.3, 25 °C) | begins to exhibit slow degradation after [2, 5] [days] | stability [2, 5] | taxol release ([2]; sterile water, pH 6.2 phosphate buffered saline, or 5% dextrose, 25°C, period of 11 minutes) | critical concentration (exponential increase in optical density) [3] [µM] | stability when incubated with human plasma ([4]; 37°C, human plasma) | complete conversion of 2 into taxol (1) ([4]; plasma treated with compound 2, methylene chloride extraction) [min] | Structure (SMILES) | Partition Coefficient [octanol]/[water] | microtubule stabilization (tubulin; taxol recovered from human plasma treated with 2) | calcium chloride promoted depolymerization is suppressed (tubulin) | solubility (physchem) [µM] | bind to albumin in sera (albumin) | effect on tubulin-microtubule equilibria (tubulin; buffered aqueous environment of the assay, 2 not converted to taxol)
 |  |  |  |  |  |  |  |  |  | CC(=O)O[C@H]1C(=O)[C@@]2(C)[C@H]([C@H](OC(=O)c3ccccc3)[C@]3(O)C[C@H](OC(=O)[C@H](O)[C@@H](NC(=O)c4ccccc4)c4ccccc4)C(C)=C1C3(C)C)[C@]1(OC(C)=O)CO[C@@H]1C[C@@H]2O [taxol, Taxol] | > 10000 | exhibited the expected microtubule stabilization | suppressed | < 1.5 | ca. 85% | 
5 | unstable | completely stable | over 21 days | 4 | stable for several days | no taxol release is observed | 400 | breaks down rapidly | ≤ 10 | CC(=O)O[C@H]1C(=O)[C@@]2(C)[C@H]([C@H](OC(=O)c3ccccc3)[C@]3(O)C[C@H](OC(=O)[C@H](Oc4cccc[n+]4C)[C@@H](NC(=O)c4ccccc4)c4ccccc4)C(C)=C1C3(C)C)[C@]1(OC(C)=O)CO[C@@H]1C[C@@H]2O [compound 2, Taxol-2'-MPT] |  |  | not |  |  | does not affect the tubulin-microtubule equilibria
